≈ marks a conversion by molar mass, not a printed value.
Assays:
[1] = Solubility of the compounds in water, methanol and isopropanol; format: physicochemical; conditions: for Solubility in Isopropanol: solvent isopropanol; for Solubility in Methanol: solvent methanol; for Solubility in Water: solvent water
Protocol: The solubility in water, methanol, and isopropanol of the compounds of the present disclosure and the comparative compounds were measured separately.

[2] = tested on: histamine-induced asthma in guinea pigs; assay: Antiasthmatic effect on histamine-induced asthma in guinea pigs (latency period); format: in vivo; conditions: X±s, n = 5; for Post-administration latency period: 1 mg/kg oral gavage, sixty minutes after administration, histamine hydrochloride spray, capped at 8 minutes; for Pre-administration latency period: baseline before administration, histamine hydrochloride 0.8 mg/mL sprayed 40 seconds
Protocol: The guinea pigs were placed in a polymethyl methacrylate bell jar and a histamine hydrochloride solution was sprayed ultrasonically (0.8 mg/mL) for 40 seconds. The time point at which the guinea pigs developed asthma was recorded. The time of convulsion and fall was taken as the latency period. Guinea pigs with a latency period exceeding 180 seconds were not selected. […] The guinea pigs were administered by oral gavage at a dose of 2 mL/kg·bw. Sixty minutes after the administration, the guinea pigs were placed in bell jars, and histamine hydrochloride solution was sprayed under the same conditions as in the previous selection. The latency period for the onset of asthma was recorded. […] The results were processed statistically.

[3] = tested on: isolated ileal smooth muscle of guinea pigs; assay: Effect on muscle tone of isolated ileal smooth muscle of guinea pigs (no histamine added); conditions: X±s; for Smooth muscle tone After administration: 5 minutes after adding drug; for Smooth muscle tone After administration / Smooth muscle tone Before administration: n = 8; for Antispasmodic percentage: relative to tone before adding compound, n = 8, 5 min; for Smooth muscle tone Before administration: baseline
Protocol: (§1) The guinea pig was knocked unconscious with a wooden stick, and the abdomen was immediately dissected to separate the ileum about 15 cm in length. The contents of the intestinal segment were flushed with Tyrode's solution and placed in Tyrode's solution at a constant temperature of 37°C for later use, and oxygen was supplied simultaneously. The experimental intestinal tract (1 cm in length) was cut and placed into 20 ml of Tyrode's solution at a constant temperature of 37°C with a continuous oxygen supply. One end of the intestine was fixed on the ventilation hook and the other end was connected to the muscle tone transducer and led to the computer interface. The muscle tone value of the ileal smooth muscle was recorded with a BL system. The experiment was carried out after the intestinal segment contraction became stable.
After the ileum contraction curve stabilized, the tone values before adding the drug were recorded, then the drug or DMSO was added, and the average tone value of the ileum contraction curve at that point was recorded 5 minutes later. The operation was repeated 8 times. The antispasmodic percentage was calculated according to the following formula. Antispasmodic percentage =; (Tone value before adding subject compound−Tone value after adding subject compound)/(Tone value before adding subject compound); × 100% [formula]

[4] = Antagonism of histamine-induced contraction of isolated ileal smooth muscle of guinea pigs; conditions: relative to tone after adding histamine; x±s, n = 8; 3 min
Protocol: as §1
(§2) After the ileal peristalsis curve stabilized, the tone values before adding the compound were recorded, and then 0.05 mL of histamine was added. […] The operation was repeated 8 times. The antispasmodic percentage was calculated using the following equation. Antispasmodic percentage =; (Tone value after adding histamine−Tone value after adding subject compound)/(Tone value after adding histamine) × 100% [formula]

histamine = assay: as above; conditions: x±s, n = 8; for Smooth muscle tone After administration: 3 minutes after adding 0.05 mL compound following histamine; for Smooth muscle tone After addition of histamine: after 0.05 mL histamine, before compound; for Smooth muscle tone Before administration: baseline before histamine
Protocol: as §1, §2

[5] = Accelerated stability test; format: physicochemical; conditions: 40°C ± 2°C, relative humidity 75% ± 5%

SMILES	Solubility in Isopropanol [1] [mg/mL]	Solubility in Methanol [1] [mg/mL]	Solubility in Water [1]	Post-administration latency period [2] [s]	Smooth muscle tone After administration [3] [g]	Antispasmodic percentage [3] [%]	Antispasmodic percentage [4] [%]	Smooth muscle tone After administration (histamine) [g]	Pre-administration latency period [2] [s]	Smooth muscle tone Before administration [3] [g]	Antispasmodic percentage ([3]; 5 min) [%]	Smooth muscle tone After addition of histamine (histamine) [g]	Smooth muscle tone Before administration (histamine) [g]	other results
OCCCCCCN1CCC(=C2c3ccc(Cl)cc3CCc3cccnc32)CC1 [Hydroxyhexyl desloratadine, reference compound]	32 (≈ 77.9 mM)	15 (≈ 36.5 mM)	Practically insoluble	281.18 ± 53.76	1.30 ± 0.30	24.42±11.13	58.06±13.39	1.43 ± 0.47	–	–	–	–	–	–
O=C1Cc2ccccc2C(=C2CCN(CCCCOCOP(=O)(O)O)CC2)c2ccsc21 [Compound III-8]	–	–	20 mg/mL (≈ 41.9 mM)	376.24 ± 50.42	1.16 ± 0.21	–	66.47±18.83	1.12 ± 0.21	99.49 ± 51.11	1.70 ± 0.29	31.76±18.69	3.42 ± 0.99	1.78 ± 0.20	–
O=C1Cc2ccccc2C(=C2CCN(CCCCCOP(=O)(O)O)CC2)c2ccsc21 [Compound III-5]	–	–	20 mg/mL (≈ 43.3 mM)	375.52 ± 49.26	1.13 ± 0.31	–	65.01±18.17	1.20 ± 0.21	102.32 ± 54.23	1.70 ± 0.20	33.53±19.21	3.43 ± 0.93	1.73 ± 0.21	–
O=C1Cc2ccccc2C(=C2CCN(CCCCOP(=O)(O)O)CC2)c2ccsc21 [Compound III-4]	–	–	20 mg/mL (≈ 44.7 mM)	369.49 ± 51.06	1.16 ± 0.23	–	64.24±17.11	1.23 ± 0.24	99.07 ± 50.25	1.72 ± 0.16	32.55±18.33	3.44 ± 0.96	1.78 ± 0.17	–
O=C1Cc2ccccc2C(=C2CCN(COP(=O)(O)O)CC2)c2ccsc21 [Compound III-1]	–	–	20 mg/mL (≈ 49.3 mM)	376.25 ± 51.77	1.18 ± 0.25	–	66.76±16.11	1.14 ± 0.23	98.57 ± 49.10	1.70 ± 0.17	30.59±18.11	3.43 ± 1.06	1.79 ± 0.21	–
O=C1Cc2ccccc2C(=C2CCN(CCCOCOP(=O)(O)O)CC2)c2ccsc21 [Compound III-7]	–	–	20 mg/mL (≈ 43.2 mM)	377.23 ± 50.23	1.20 ± 0.25	–	66.28±16.16	1.16 ± 0.22	–	–	30.23±19.04	–	–	Content ([5]; Month 0): 99.7%; Description ([5]; Month 0): White powder; Related substances ([5]; Month 0): 0.03%; Description ([5]; Month 1): White powder; Related substances ([5]; Month 1): 0.05%; Description ([5]; Month 2): White powder; Related substances ([5]; Month 2): 0.10%; Description ([5]; Month 3): White powder; Related substances ([5]; Month 3): 0.15%; Description ([5]; Month 6): White powder; Related substances ([5]; Month 6): 0.34%; remaining at 730 h ([5]; storage 75% relative humidity, Month 1, read-out: Content): 99.7%; remaining at 1460 h ([5]; storage 75% relative humidity, Month 2, read-out: Content): 99.6%; remaining at 2190 h ([5]; storage 75% relative humidity, Month 3, read-out: Content): 99.5%; remaining at 4380 h ([5]; storage 75% relative humidity, Month 6, read-out: Content): 99.2%
OCCCCN1CCC(=C2c3ccc(Cl)cc3CCc3cccnc32)CC1 [Hydroxybutyl desloratadine, reference compound]	28 (≈ 73.1 mM)	22 (≈ 57.5 mM)	Practically insoluble	286.23 ± 55.29	1.31 ± 0.28	24.27±12.31	57.77±13.69	1.45 ± 0.47	–	–	–	–	–	–
OCCN1CCC(=C2c3ccc(Cl)cc3CCc3cccnc32)CC1 [Hydroxyethyl desloratadine, reference compound]	21 (≈ 59.2 mM)	27 (≈ 76.1 mM)	Practically insoluble	281.12 ± 54.82	1.33 ± 0.27	21.76±10.04	58.53±10.79	1.41 ± 0.43	–	–	–	–	–	–
OCCCCCN1CCC(=C2c3ccc(Cl)cc3CCc3cccnc32)CC1 [Hydroxypentyl desloratadine, reference compound]	29 (≈ 73.1 mM)	19 (≈ 47.9 mM)	Practically insoluble	284.29 ± 57.34	1.28 ± 0.24	25.14±12.21	57.48±12.05	1.44 ± 0.51	–	–	–	–	–	–
O=C1Cc2ccccc2C(=C2CCN(CCOP(=O)(O)O)CC2)c2ccsc21 [Compound III-2]	–	–	20 mg/mL (≈ 47.7 mM)	377.22 ± 50.87	1.21 ± 0.24	–	65.39±17.28	1.18 ± 0.21	99.48 ± 50.88	1.70 ± 0.21	28.82±16.05	3.41 ± 0.89	1.75 ± 0.18	–
Cc1cncc(CN2CCC(=C3c4ccccc4CC(=O)c4sccc43)CC2)c1 [Rupatifen, reference compound]	–	–	Practically insoluble	253.23 ± 52.29	1.31 ± 0.25	23.84±11.10	55.42±11.38	1.52 ± 0.46	–	–	–	–	–	–
O=C1Cc2ccccc2C(=C2CCN(CCCCCOCOP(=O)(O)O)CC2)c2ccsc21 [Compound III-9]	–	–	20 mg/mL (≈ 40.7 mM)	267.95 ± 51.16	1.12 ± 0.29	–	67.25±17.74	1.17 ± 0.24	–	–	34.50±19.89	–	–	–
OCCCN1CCC(=C2c3ccc(Cl)cc3CCc3cccnc32)CC1 [Hydroxypropyl desloratadine, reference compound]	26 (≈ 70.5 mM)	24 (≈ 65.1 mM)	Practically insoluble	285.28 ± 56.32	1.30 ± 0.24	23.97±11.12	57.05±12.07	1.46 ± 0.49	–	–	–	–	–	–

Reference: patent EP4559922A1, “ANTIHISTAMINE COMPOUND, PREPARATION METHOD THEREFOR AND USE THEREOF” (HC Synthetic Pharmaceutical Co., Ltd., priority 2022, dated 2024)
